Values of other authors as cited in patent publication US12090168B2, “Glucose glycans for treating urea cycle disorders” (DSM Nutritional Products, LLC, priority 2017, dated 2024).

Details: administered in combination with lactulose

## CO[C@H]1/C=C/O[C@@]2(C)Oc3c(C)c(O)c4c(O)c(c5c(nc6cc(C)ccn65)c4c3C2=O)NC(=O)/C(C)=C\C=C\[C@H](C)[C@H](O)[C@@H](C)[C@@H](O)[C@@H](C)[C@H](OC(C)=O)[C@@H]1C [rifaximin]
  reduction of episodes of OHE: approximately 50%
